Assay results taken from the supplement of paper PMC10307832.

Assays:
Assay in all cases: relative viability (nuclei count vs DMSO), 5 days (fraction); higher = more cells survive
[1] = compound: C1=CC=C2C(=C1)N=C(S2)C(C#N)C3=NC(=NC=C3)NCCC4=CN=CC=C4 + COc1cc2c(Oc3ccc(NC(=O)C4(C(=O)Nc5ccc(F)cc5)CC4)cc3F)ccnc2cc1OCCCN1CCOCC1 [Foretinib] (partner 0.25 µM)
Method in brief: (§1)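 Lung cancer cell lines were seeded in 1536-well plates and dosed by pin tool the next day, with either a single drug or a fixed anchor-drug dose combined with five library-drug doses (not always all listed) spaced in √10 steps. Five days later, one step fixed the cells and stained their nuclei (final 0.05% Triton X-100, 1% formaldehyde, 1 ug/ml Hoechst), and nuclei were counted on 4× images. Relative viability is the nuclei count in treated wells divided by the count in vehicle wells, and each value is the median of duplicate plates.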

Vandetanib + Linsitinib = compound: COc1cc2/c(=N/c3ccc(Br)cc3F)nc[nH]c2cc1OCC1CCN(C)CC1 [Vandetanib] + C[C@]1(O)C[C@@H](c2nc(-c3ccc4ccc(-c5ccccc5)nc4c3)c3c(N)nccn32)C1 [Linsitinib] (partner 1 µM)
Method in brief: as §1

Vandetanib + Palbociclib = compound: COc1cc2/c(=N/c3ccc(Br)cc3F)nc[nH]c2cc1OCC1CCN(C)CC1 [Vandetanib] + CC(=O)c1c(C)c2cnc(Nc3ccc(N4CCNCC4)cn3)nc2n(C2CCCC2)c1=O [Palbociclib] (partner 0.5 µM)
Method in brief: as §1

[2] = compound: C1=CC=C2C(=C1)N=C(S2)C(C#N)C3=NC(=NC=C3)NCCC4=CN=CC=C4 + CC(C)C[C@H](NC(=O)[C@H](Cc1ccccc1)NC(=O)c1cnccn1)B(O)O [Bortezomib] (partner 0.002 µM)
Method in brief: as §1

| Cell Line | relative viability ([1]; first compound 0.01581 µM) | relative viability ([1]; first compound 0.05 µM) | relative viability ([1]; first compound 0.1581 µM) | relative viability ([1]; first compound 0.5 µM) | relative viability (Vandetanib + Linsitinib; first compound 0.02 µM) | relative viability (Vandetanib + Linsitinib; first compound 0.06325 µM) | relative viability (Vandetanib + Linsitinib; first compound 0.2 µM) | relative viability (Vandetanib + Linsitinib; first compound 0.6325 µM) | relative viability (Vandetanib + Linsitinib; first compound 2 µM) | relative viability (Vandetanib + Palbociclib; first compound 0.02 µM) | relative viability (Vandetanib + Palbociclib; first compound 0.06325 µM) | relative viability (Vandetanib + Palbociclib; first compound 0.2 µM) | relative viability (Vandetanib + Palbociclib; first compound 0.6325 µM) | relative viability (Vandetanib + Palbociclib; first compound 2 µM) | relative viability ([2]; first compound 0.01581 µM) | relative viability ([2]; first compound 0.05 µM) | relative viability ([2]; first compound 0.1581 µM) | relative viability ([2]; first compound 0.5 µM) | relative viability ([1]; first compound 0.005 µM) | relative viability ([2]; first compound 0.005 µM) |
| --- | --- | --- | --- | --- | --- | --- | --- | --- | --- | --- | --- | --- | --- | --- | --- | --- | --- | --- | --- | --- |
| NCI-H441 | 0.902 | 0.913 | 1.1 | 0.908 | 0.597 | 0.538 | 0.498 | 0.592 | 0.472 | 0.221 | 0.253 | 0.21 | 0.197 | 0.171 | 0.414 | 0.679 | 0.912 | 0.743 |  |  |
| SW 1573 | 0.792 | 0.949 | 0.994 | 0.892 | 0.832 | 0.777 | 0.749 | 0.741 | 0.794 | 0.413 | 0.421 |  | 0.29 | 0.403 | 1.26 |  | 1.1 | 0.936 | 0.963 | 0.659 |
| HCC-78 | 0.526 | 0.523 | 0.559 | 0.504 | 0.414 | 0.438 | 0.567 | 0.579 | 0.337 | 0.443 | 0.485 | 0.479 | 0.518 | 0.446 | 0.575 | 0.49 | 0.465 | 0.589 | 0.473 | 0.547 |
| NCI-H2023 | 0.933 | 0.857 | 1.09 | 0.907 | 0.698 | 0.607 | 0.676 | 0.589 | 0.485 | 0.359 | 0.369 |  | 0.314 | 0.319 | 0.956 | 0.942 | 1.14 | 1.02 | 0.708 | 0.893 |
| NCI-H2126 | 1.2 | 1.22 | 1.19 | 1.34 | 0.67 | 0.728 | 0.73 | 0.765 | 0.647 | 0.338 | 0.348 | 0.328 | 0.356 | 0.35 | 1.15 | 1.06 | 1.16 | 1.11 | 1.14 | 1.07 |
| RERF-LC-KJ | 0.826 | 0.86 | 0.882 | 0.762 | 0.922 | 0.859 | 0.939 | 0.835 | 0.763 | 1.05 | 1.03 | 0.673 | 0.993 | 0.869 | 1.12 | 0.971 | 1.16 | 0.905 | 0.966 | 1.02 |
| NCI-H3122 | 0.87 | 0.917 | 1.05 | 0.969 | 1.01 | 0.946 | 0.957 | 0.964 | 0.993 | 0.198 | 0.183 | 0.126 | 0.178 | 0.228 | 1.05 | 0.958 | 1.05 | 1.07 | 0.839 | 0.877 |
| NCI-H322M | 0.983 | 0.838 | 0.972 | 0.982 | 0.832 | 0.841 | 0.924 | 0.846 | 0.894 | 0.484 | 0.457 | 0.494 | 0.446 | 0.414 | 1.31 | 1.21 | 1.32 | 1.23 | 0.887 | 0.947 |
| NCI-H647 | 1.27 | 1.28 | 1.32 | 1.14 | 1.1 | 1.13 | 1.08 | 1.2 | 1.14 | 0.402 | 0.385 | 0.384 | 0.358 | 0.381 | 1.04 | 0.869 | 1.05 | 0.989 | 1.08 |  |
| EMC-BAC-2 | 1.01 | 0.994 | 1.03 | 1.03 | 0.792 | 0.772 | 0.612 | 0.77 | 0.673 | 0.533 | 0.499 | 0.546 | 0.515 | 0.502 | 1.05 | 1.06 | 1.12 | 0.945 | 0.946 | 0.998 |
| PC-14 | 1.05 | 0.917 | 1.08 | 0.819 | 0.988 | 0.911 | 1.03 | 0.617 | 0.249 | 0.536 | 0.436 | 0.0488 | 0.117 | 0.0605 | 1.12 | 0.9 | 0.965 | 0.679 | 0.899 | 0.665 |
| 201T |  | 1.01 | 1.08 | 0.625 | 1.08 | 0.936 | 0.989 | 0.944 | 1.01 | 0.35 | 0.353 | 0.332 | 0.314 | 0.335 | 1.09 | 1.09 | 1.09 | 1.11 | 1.19 | 1.1 |
| LXF-289 | 1.02 | 0.988 | 1.01 | 0.826 | 0.949 | 0.942 | 0.957 | 0.971 | 0.967 | 0.588 | 0.565 | 0.518 | 0.575 | 0.558 | 1.03 | 1.02 | 1.06 | 0.717 | 0.898 | 0.888 |
